Legend:
[1] = tested on: B16BL6 melanoma cell line; assay: MTT cell viability, combination with retinoids; assay type: cell-based; settings: 10 nM retinoid only, 3 days
Procedure: The ex vivo cell viability inhibition by BA016DD537 in the presence of the retinoids 13CRA and ATRA was tested against B16BL6 melanoma cell line using the 3-(4,5 dimethylthiazol-2-yl)-2,5-diphenyl-2H-tetrazolium bromide (MTT) calorimetric assay.
(§1) About 1000 cells were seeded in a 96-well culture plate 24 hours before adding increasing concentrations of BA016DD537, from 1 pM to 100 pM, in the absence or in the presence of 10 nM of retinoids. The plate was incubated at 37° C. for 3 days. 10 μl MTT stock solution (5 mg/ml in phosphate buffer saline) was added to 90 μl of complete medium in each well, the incubation was continued for 3 h at 37° C. 100 μl of lysis buffer (20% sodium dodecyl sulfate, 10 mM HCl, 1×PBS) was added to each well, and the plate was incubated overnight. The absorbance was determined using an Integrated EIA Management System (Labsystem) at a wavelength of 570 nm.

[2] = tested on: actin in NIH 3T3 EF extract; assay: fluorescence anisotropy assay of actin dynamics in cell extract; assay type: biochemical; settings: for effect on actin-F elongation rate constant and actin-F steady state value: NIH 3T3 EF cytosolic fractions; for k (rate constant of F-actin elongation) / Δ mA (anisotropy enhancement, steady state F-actin): malignant NIH 3T3 EF extract, compound at 200 nM
Procedure: Actin dynamics is known to be impaired in tumor cells with a subsequent decrease of F-actin to G-actin ratio. Actin dynamics has been quantified in tumor cell extracts using the fluorescence anisotropy assay which gains access to rate constant of F-actin elongation (k) and steady state concentration of F-actin (Δ mA).
All reactions were carried out at 22° C. and fluorescence anisotropy signal was recovered at 520 nm with excitation at 490 nm in a Beacon 2000 (Panvera). Alexa 488 actin (Molecular Probes) was centrifuged at 35 000 rpm for 2 h at 4° C. to sediment residual actin polymers in a Beckman L5-50B ultracentrifuge. […] 80% of the supernatant was withdrawn; the concentration was defined through fluorescence measurements (excitation at 490 nm and signal recovering at 520 nm). The ultracentrifuged actin concentration was calculated using the non ultracentrifuged Alexa 488 actin as a standard. The supernatant was aliquoted, frozen in liquid nitrogen and stored at −80° C.
Before experiment, an aliquot of ultracentrifuged Alexa 488 actin was diluted to a concentration of […] in G buffer (5 mM Tris pH 8.1, 2 mM CaCl2, 0.2 mM DTT, 0.2 mM ATP). 3 μl of diluted Alexa 488 actin was mixed in 168 μl of G buffer and actin monomers anisotropy was measured before the addition of 4 μl of polymerisation buffer (2.5 M KCl, 50 mM MgCl2, 25 mM ATP), 5 μl of G buffer in the presence or in the absence of the chemical molecule and 20 μl cellular extract of normal NIH 3T3 cells or malignant NIH 3T3 EF cells at 2 mg/ml. The final concentration of Alexa 488 actin was 4 nM. The ratio of unlabelled to labelled actin was about 140/4 nM. Measurements were made each 10 sec for 200 sec. Actin monomers anisotropy value was subtracted, yielding the anisotropy enhancement (Δ mA). The data were fitted with the equation Y=Ymax. [1−exp(−K.X)]. The curves start at zero and ascend to Ymax that corresponds to the steady state anisotropy value (Δ mA eq), with a rate constant K. Y is anisotropy values of which monomers anisotropy is subtracted and X is the time.

NIH 3T3 EF cells [3] = assay: F-actin network rescue, FITC-phalloidin fluorescence microscopy; assay type: cell-based; settings: non cytotoxic concentrations (100 nM and 200 nM), three days
Procedure: Malignant NIH 3T3 EF cells were seeded onto glass cover slips at a density of 2000 cells per cm^2. The next day, BA016DD537 was applied to NIH 3T3 EF cells at various non cytotoxic concentrations (100 nM and 200 nM). Three days later, cells were fixed for 10 min in PBS containing 3.7% formaldehyde at 4° C. before examination with a fluorescence microscope. The formaldehyde solution was neutralized with 50 mM NH4Cl. Extraction was carried out for 4 min with 0.4% Triton X-100 in PBS. Cells were incubated for 1 h with blocking buffer (3% bovine serum albumin in PBS) and then for 20 min with FITC-phalloidin (Sigma) at room temperature. Cover slips were mounted in Vectashieldk (Zymed) and observed through a fluorescence microscope (Nikon).

NIH 3T3 EF cells [4] = assay: wound healing assay (cell motility); assay type: cell-based; settings: non cytotoxic concentrations
Procedure: Wound healing assay was performed to evaluate the effect of BA016DD537 on motility of malignant NIH 3T3 EF cells and melanoma cell lines B16F10 and B16BL6. All the cells were incubated at 37° C. in a humidified 5% CO2 atmosphere. About 100 000-200 000 cells were seeded in a 6-well culture plate and BA016DD537, at the different concentrations, was added 24 hours later. Cells were grown for 3 days to confluence about 90-95% and small scratch-wounds (about 200 μm-1 mm width) were made with a pipette tip. Cell debris were removed, then the cultures were incubated in complete medium for 10 h in the presence of the same concentration of BA016DD537. Then, the cells were fixed for 10 min in PBS containing 3.7% formaldehyde at 4° C.

Melanoma B16 cells = assay: antitumor activity, i.p. grafted B16 melanoma, survival; assay type: in vivo, B6D2F1 mice
Procedure: Antitumor activity against B16 melanoma can be assessed in mice using i.p. graft of malignant cells followed by i.p. treatment. This type of protocol which by-pass various biodisponibility parameters gives information roughly on the maximal antitumor activity which can be expected for a given tumor.
Melanoma B16 cells (4×10^5) were injected in B6D2F1 mice using i.p. route at J0. Drugs, dissolved in sterile distilled water (0.5 ml) were injected daily using as well i.p. route from J1 to J9 at various concentrations. Control mice received distilled water only according the same protocol.
Treated and control mice were counted daily. TIC (mean survival of treated mice/mean survival of control mice) was calculated at J9.

B16F10 [5] = assay: MTT cell proliferation assay; assay type: cell-based, murine; settings: Mus musculus, B16-F10; B16F10 (Example 11); read-out: IC50 (MTT Test-72 h)
Procedure: Growth studies were performed using the [3-(4,5 dimethylthiazol-2-yl)-2,5-diphenyl-2H-tetrazolium bromide] (Sigma) calorimetric assay.
as §1, with “1500 to 5000 cells, according to the cell line,” for “1000 cells”, “BA016DD537” for “BA016DD537, from 1 pM to 100 pM, in the absence”, “BA016FZ539.” for “in the presence of 10 nM of retinoids.”, “(10%” for “(20%”, “1% HCl 1N; pH 4.7)” for “10 mM HCl, 1×PBS)”, “nm. The proliferation rates were calculated from the OD readings using the untreated cells as 100%.” for “nm.”
(§2) Growth studies were performed using both MTT and SRB calorimetric assay (Sigma). About 1500 B16F10 or 3000 pancreatic cells (MIA PaCa-2 and PANC1) were seeded in a 96-well culture plate before adding increasing concentrations of monomesylate or bimesylate.
(§3) The plates were incubated at 37° C. for 3 days and then were treated depending on SRB or MTT protocols (see material and methods).
(§4) In these two cases, the proliferation rates were calculated from the OD readings using the untreated cells as 100%.

B16F10 [6] = assay: cloning assay in methylcellulose (colony formation); assay type: cell-based, murine; settings: Mus musculus, B16-F10, 216 h; B16F10, clones counted after 9 days (Example 11); read-out: B16F10 Inhibition of colony formation IC50
Procedure: Cells were embedded in complete culture medium supplemented with 0.8% methylcellulose (Methocel MC4000, Sigma), seeded in triplicate into 35-mm dishes (Greiner Bio-one Ref 627102, Dominique Dutscher) and incubated at 37° C. in a humidified 5% CO2 atmosphere. The number of cells seeded was 1000 cells per dish. After one to three weeks, according to cell lines, macroscopic clones were counted.
Cells were embedded in complete culture medium supplemented with 0.8% methyl-cellulose (Methocel MC4000, Sigma), seeded in triplicate into 35-mm dishes and incubated at 37° C. in a humidified 5% CO2 atmosphere. The number of cells seeded was 1000 cells per dish. After 9 days, macroscopic clones of murine melanoma cell line B16F10 were counted.

Mia Paca-2 = assay: SRB (sulforhodamine B) cell proliferation assay; assay type: cell-based, human; settings: Homo sapiens; Mia Paca-2 (Example 11); read-out: IC50 (SRB Test-72 h)
Procedure: (§5) After an incubation period, cell monolayers are fixed with 10% (wt/vol) trichloroacetic acid and stained for 30 min, after which the excess dye is removed by washing repeatedly with 1% (vol/vol) acetic acid. The protein-bound dye is dissolved in 10 mM Tris base solution for optic density determination (OD) at 510 nm using a microplate reader.
(§6) The proliferation rates were calculated from the OD readings using the untreated cells as 100%.
(§7) The effects BA016FZ539 on the growth of MIA PaCa-2 and PANC-1 pancreatic cells were tested over a range of concentrations from 500 μM to 0.16 μM and measured by using the SRB calorimetric assay.
(§8) About 5000 MIA PaCa-2 or PANC-1 cells were seeded in a 96-well culture plate while adding increasing concentrations of BA016FZ539.
as §2, §3, §4

PANC-1 = assay: SRB (sulforhodamine B) cell proliferation assay; assay type: cell-based, human; settings: Homo sapiens; PANC-1 (Example 11); read-out: IC50 (SRB Test-72 h)
Procedure: as §5, §6, §7, §8, §2, §3, §4

B16F10 [7] = assay: SRB (sulforhodamine B) cell proliferation assay; assay type: cell-based, murine; settings: Mus musculus, B16-F10; B16F10 (Example 11); read-out: IC50 (SRB Test-72 h)
Procedure: as §2, §3, §4

Row | SMILES | cell viability inhibition (MTT) [1] | effect on actin-F elongation rate constant and actin-F steady state value [2] | k (rate constant of F-actin elongation) [2] [s⁻¹] | Δ mA (anisotropy enhancement, steady state F-actin) [2] | rebuilding of actin network / morphology (NIH 3T3 EF cells [3]) | migration of treated malignant cells into the wound (NIH 3T3 EF cells [4]) | also measured
1 | CC1=C(/C=C/C(C)=C/C=C/C(C)=C\C(=O)O)C(C)(C)CCC1 [13CRA, 13-cis-retinoic acid, reference compound] | No cell viability inhibition |  |  |  |  |  | 
2 | CC1=C(/C=C/C(C)=C/C=C/C(C)=C/C(=O)O)C(C)(C)CCC1 [ATRA, all-transretinoic acid, reference compound] | No cell viability inhibition |  |  |  |  |  | 
3 | Cc1c2cc[n+](C)cc2c(C)c2c1[nH]c1ccc(O)cc12 [BA016CA77, 9-hydroxy-2(beta-methyl)-ellipticinium acetate] |  | do not increase the actin-F elongation rate constant and the actin-F steady state value | 0.0416 | 38.33 | neither 9-hydroxy-2-ethyl)-ellipticinium acetate, nor 9-hydroxy-2(methyl)-ellipticinium acetate (Celiptium) were found active | migrate in the same way as non treated malignant cells | T/C (%) (mean survival of treated mice/mean survival of control mice) (Melanoma B16 cells; 0.125 mg/kg/inj. i.p. daily J1 to J9): 121%; T/C (%) (mean survival of treated mice/mean survival of control mice) (Melanoma B16 cells; 0.25 mg/kg/inj. i.p. daily J1 to J9): 122%; T/C (%) (mean survival of treated mice/mean survival of control mice) (Melanoma B16 cells; 0.5 mg/kg/inj. i.p. daily J1 to J9): 58%; antitumor activity against B16 melanoma (T/C>125% = significant) (Melanoma B16 cells; i.p. graft, i.p. treatment): no significant antitumor activity
4 | CC(=O)[O-].CC[n+]1ccc2c(C)c3[nH]c4ccc(O)cc4c3c(C)c2c1 [BA016CA107, 9-hydroxy-2(beta-ethyl)-ellipticinium acetate] |  | do not increase the actin-F elongation rate constant and the actin-F steady state value | 0.0280 | 42.14 | neither 9-hydroxy-2-ethyl)-ellipticinium acetate, nor 9-hydroxy-2(methyl)-ellipticinium acetate (Celiptium) were found active | migrate in the same way as non treated malignant cells | 
5 | Cc1c2cc[n+](CCN3CCCCC3)cc2c(C)c2c1[nH]c1ccc(O)cc12 [Bimesylate] |  |  |  |  |  |  | IC50 (B16F10 [5]): 2800 nM; IC50 (B16F10 [6]): 21 nM; IC50 (Mia Paca-2): 2500 nM; IC50 (PANC-1): 37.6 µM; IC50 (B16F10 [7]): 1800 nM

Reference: US20090197906A1, “REVERSION OF MALIGNANT PHENOTYPE WITH 9-HYDROXY ELLIPTICINE DERIVATIVES” (priority 2006, published 2009)
